Assay results taken from patent US9822114B2, “Tricyclic oxazolidinone antibiotic compounds” (Idorsia Pharmaceuticals Ltd, priority 2008, dated 2017).
Values after ≈ are worked out from the molar mass of the structure shown.

Each molecule was assayed on M. catarrhalis A894 (assay: Minimal inhibitory concentration (MIC), microdilution method in cation-adjusted Mueller-Hinton Broth (CLSI M7-A7)). Settings: Moraxella catarrhalis, strain A894.
Assay type: cell-based
Protocol: Minimal inhibitory concentrations (MICs; mg/1) were determined in cation-adjusted Mueller-Hinton Broth by a microdilution method following the description given in “Methods for Dilution Antimicrobial Susceptibility Tests for Bacteria that Grow Aerobically”, Approved standard, 7th ed., Clinical and Laboratory Standards Institute (CLSI) Document M7-A7, Wayne, Pa., USA, 2006.

Molecule	MIC [µg/mL]
O=C1CSc2ccc(N3C[C@@H](CCCN[C@H]4Cn5c(=O)ccc6ncc(F)c4c65)OC3=O)nc2N1 [Example 142, (R)-3-fluoro-4-{3-[(R)-2-oxo-3-(3-oxo-3,4-dihydro-2H-pyrido[3,2-b][1,4]thiazin-6-yl)-oxazolidin-5-yl]-propylamino}-4,5-dihydro-pyrrolo[3,2,1-de][1,5]naphthyridin-7-one]	≤ 0.031
O=C1CSc2ccc(N3C[C@@H](CNCCC4Cn5c(=O)ccc6ccc(F)c4c65)OC3=O)cc2N1 (mixture of isomers) [Example 10, (1RS)-9-fluoro-1-(2-{[(R)-2-oxo-3-(3-oxo-3,4-dihydro-2H-benzo[1,4]thiazin-6-yl)-oxazolidin-5-ylmethyl]-amino}-ethyl)-1,2-dihydro-pyrrolo[3,2,1-ij]quinolin-4-one]	≤ 0.031
O=C1O[C@H](CCNC[C@@H]2Cn3c(=O)ccc4ccc(F)c2c43)CN1c1cc2c(cn1)OCCO2 (racemic) [Example 42, (RS)-1-({2-[(RS)-3-(2,3-dihydro-[1,4]dioxino[2,3-c]pyridin-7-yl)-2-oxo-oxazolidin-5-yl]-ethylamino}-methyl)-9-fluoro-1,2-dihydro-pyrrolo[3,2,1-ij]quinolin-4-one]	2 (≈ 4.29 µM)
O=C1CSc2ccc(N3C[C@@H](CCN[C@H]4Cn5c(=O)ccc6ccc(F)c4c65)OC3=O)cc2N1 (racemic) [Example 14, (1RS)-9-fluoro-1-{2-[(RS)-2-oxo-3-(3-oxo-3,4-dihydro-2H-benzo[1,4]thiazin-6-yl)-oxazolidin-5-yl]-ethylamino}-1,2-dihydro-pyrrolo[3,2,1-ij]quinolin-4-one]	≤ 0.031
O=C1COc2ccc(N3C[C@@H](CCCN[C@H]4Cn5c(=O)ccc6ccc(F)c4c65)OC3=O)nc2N1 [Example 194, (R)-9-fluoro-1-{3-[(R)-2-oxo-3-(3-oxo-3,4-dihydro-2H-pyrido[3,2-b][1,4]oxazin-6-yl)-oxazolidin-5-yl]-propylamino}-1,2-dihydro-pyrrolo[3,2,1-ij]quinolin-4-one]	≤ 0.031
O=C1COc2ccc(N3C[C@H](CCN[C@@H]4Cn5c(=O)ccc6cccc4c65)OC3=O)cc2N1 [Example 89, (S)-1-{2-[(S)-2-oxo-3-(3-oxo-3,4-dihydro-2H-benzo[1,4]oxazin-6-yl)-oxazolidin-5-yl]-ethylamino}-1,2-dihydro-pyrrolo[3,2,1-ij]quinolin-4-one]	0.063 (≈ 0.141 µM)
O=C1CSc2ccc(N3C[C@@H](CCCN[C@@H]4Cn5c(=O)cnc6cccc4c65)OC3=O)cc2N1 [Example 48, (S)-6-{3-[(R)-2-oxo-3-(3-oxo-3,4-dihydro-2H-benzo[1,4]thiazin-6-yl)-oxazolidin-5-yl]-propylamino}-5,6-dihydro-pyrrolo[1,2,3-de]quinoxalin-3-one]	≤ 0.031
CN(CCC[C@@H]1CN(c2ccc3c(c2)NC(=O)CS3)C(=O)O1)C1Cn2c(=O)ccc3ccc(F)c1c32 (mixture of isomers) [Example 153, (RS)-9-fluoro-1-(methyl-{3-[(R)-2-oxo-3-(3-oxo-3,4-dihydro-2H-benzo[1,4]thiazin-6-yl)-oxazolidin-5-yl]-propyl}-amino)-1,2-dihydro-pyrrolo[3,2,1-ij]quinolin-4-one]	≤ 0.031
Cc1ccc2ccc(=O)n3c2c1C(NCCC[C@@H]1CN(c2ccc4c(c2)NC(=O)CS4)C(=O)O1)C3 (mixture of isomers) [Example 152, (RS)-9-methyl-1-{3-[(R)-2-oxo-3-(3-oxo-3,4-dihydro-2H-benzo[1,4]thiazin-6-yl)-oxazolidin-5-yl]-propylamino}-1,2-dihydro-pyrrolo[3,2,1-ij]quinolin-4-one]	≤ 0.031
O=C1CSc2ccc(N3C[C@H](CCN[C@@H]4Cn5c(=O)ccc6nccc4c65)OC3=O)cc2N1 [Example 41, (S)-4-{2-[(S)-2-oxo-3-(3-oxo-3,4-dihydro-2H-benzo[1,4]thiazin-6-yl)-oxazolidin-5-yl]-ethylamino}-4,5-dihydro-pyrrolo[3,2,1-de][1,5]naphthyridin-7-one]	0.5 (≈ 1.08 µM)
O=C1O[C@H](CCNC[C@@H]2Cn3c(=O)ccc4ccc(F)c2c43)CN1c1ccc2c(n1)OCCO2 (racemic) [Example 43, (RS)-1-({2-[(RS)-3-(2,3-dihydro-[1,4]dioxino[2,3-b]pyridin-6-yl)-2-oxo-oxazolidin-5-yl]-ethylamino}-methyl)-9-fluoro-1,2-dihydro-pyrrolo[3,2,1-ij]quinolin-4-one]	1 (≈ 2.14 µM)
O=C1CSc2ccc(N3C[C@@H](CCCNC4Cn5c(=O)cnc6cccc4c65)OC3=O)nc2N1 (mixture of isomers) [Example 115, (RS)-6-{3-[(R)-2-oxo-3-(3-oxo-3,4-dihydro-2H-pyrido[3,2-b][1,4]thiazin-6-yl)-oxazolidin-5-yl]-propylamino}-5,6-dihydro-pyrrolo[1,2,3-de]quinoxalin-3-one]	≤ 0.031
O=C1COc2ccc(N3C[C@@H](CNCCC4CN5C(=O)CCc6ccc(F)c4c65)OC3=O)cc2N1 (mixture of isomers) [Example 25, (1RS)-9-fluoro-1-(2-{[(R)-2-oxo-3-(3-oxo-3,4-dihydro-2H-benzo[1,4]oxazin-6-yl)-oxazolidin-5-ylmethyl]-amino}-ethyl)-1,2,5,6-tetrahydro-pyrrolo[3,2,1-ij]quinolin-4-one]	≤ 0.031
O=C1CSc2ccc(N3C[C@@H](CCCN[C@@H]4Cn5c(=O)ccc6ncc(F)c4c65)OC3=O)cc2N1 [Example 145, (S)-3-fluoro-4-{3-[(R)-2-oxo-3-(3-oxo-3,4-dihydro-2H-benzo[1,4]thiazin-6-yl)-oxazolidin-5-yl]-propylamino}-4,5-dihydro-pyrrolo[3,2,1-de][1,5]naphthyridin-7-one]	≤ 0.031
O=C1O[C@H](CNCCC2Cn3c(=O)ccc4ccc(F)c2c43)CN1c1ccc2c(c1)OCCO2 (mixture of isomers) [Example 7, (1RS)-1-(2-{[(R)-3-(2,3-dihydro-benzo[1,4]dioxin-6-yl)-2-oxo-oxazolidin-5-ylmethyl]-amino}-ethyl)-9-fluoro-1,2-dihydro-pyrrolo[3,2,1-ij]quinolin-4-one]	≤ 0.031
O=C1CSc2ccc(N3C[C@H](CCNCC4(O)Cn5c(=O)ccc6ccc(F)c4c65)OC3=O)cc2N1 (mixture of isomers) [Example 174, (RS)-9-fluoro-1-hydroxy-1-({2-[(S)-2-oxo-3-(3-oxo-3,4-dihydro-2H-benzo[1,4]thiazin-6-yl)-oxazolidin-5-yl]-ethylamino}-methyl)-1,2-dihydro-pyrrolo[3,2,1-ij]quinolin-4-one]	≤ 0.031
O=C1CSc2ccc(N3C[C@@H](CCCN[C@@H]4c5c(F)ccc6ccc(=O)n(c56)[C@H]4CO)OC3=O)cc2N1 (relative stereo) [Example 182, (1R*,2R*)-9-fluoro-2-hydroxymethyl-1-{3-[(R)-2-oxo-3-(3-oxo-3,4-dihydro-2H-benzo[1,4]thiazin-6-yl)-oxazolidin-5-yl]-propylamino}-1,2-dihydro-pyrrolo[3,2,1-ij]quinolin-4-one]	≤ 0.031
O=C1CSc2ccc(N3C[C@H](CCCN[C@H]4Cn5c(=O)ccc6c(CN7CCCC7)ccc4c65)OC3=O)cc2N1 [Example 123, (R)-1-{3-[(S)-2-oxo-3-(3-oxo-3,4-dihydro-2H-benzo[1,4]thiazin-6-yl)-oxazolidin-5-yl]-propylamino}-7-pyrrolidin-1-ylmethyl-1,2-dihydro-pyrrolo[3,2,1-ij]quinolin-4-one]	0.125 (≈ 0.223 µM)
O=C1CSc2ccc(N3C[C@H](CCCN[C@H]4Cn5c(=O)ccc6ccc(F)c4c65)OC3=O)nc2N1 [Example 195, (R)-9-fluoro-1-{3-[(S)-2-oxo-3-(3-oxo-3,4-dihydro-2H-pyrido[3,2-b][1,4]thiazin-6-yl)-oxazolidin-5-yl]-propylamino}-1,2-dihydro-pyrrolo[3,2,1-ij]quinolin-4-one]	≤ 0.031
O=C1CSc2ccc(N3C[C@@H](CCCN[C@@H]4Cn5c(=O)ccc6cccc4c65)OC3=O)nc2N1 [Example 137, (S)-1-{3-[(R)-2-oxo-3-(3-oxo-3,4-dihydro-2H-pyrido[3,2-b][1,4]thiazin-6-yl)-oxazolidin-5-yl]-propylamino}-1,2-dihydro-pyrrolo[3,2,1-ij]quinolin-4-one]	≤ 0.031
NC[C@H]1[C@H](NCCC[C@@H]2CN(c3ccc4c(c3)NC(=O)CS4)C(=O)O2)c2c(F)ccc3ccc(=O)n1c23 (relative stereo) [Example 188, (1R*,2S*)-2-aminomethyl-9-fluoro-1-{3-[(R)-2-oxo-3-(3-oxo-3,4-dihydro-2H-benzo[1,4]thiazin-6-yl)-oxazolidin-5-yl]-propylamino}-1,2-dihydro-pyrrolo[3,2,1-ij]quinolin-4-one]	≤ 0.031
O=C1COc2ccc(N3C[C@H](CCCN[C@H]4Cn5c(=O)ccc6cccc4c65)OC3=O)cc2N1 [Example 134, (R)-1-{3-[(S)-2-oxo-3-(3-oxo-3,4-dihydro-2H-benzo[1,4]oxazin-6-yl)-oxazolidin-5-yl]-propylamino}-1,2-dihydro-pyrrolo[3,2,1-ij]quinolin-4-one]	≤ 0.031
O=C1CSc2ccc(N3C[C@@H](CCCNC4Cn5c(=O)ccc6ccc(Cl)c4c65)OC3=O)cc2N1 (mixture of isomers) [Example 178, (RS)-9-chloro-1-{3-[(R)-2-oxo-3-(3-oxo-3,4-dihydro-2H-benzo[1,4]thiazin-6-yl)-oxazolidin-5-yl]-propylamino}-1,2-dihydro-pyrrolo[3,2,1-ij]quinolin-4-one]	≤ 0.031

Same assay, conditions: strain A894

Molecule	MIC for M. catarrhalis A894 [µg/mL]
N—((RS)-9-fluoro-4-oxo-1,2-dihydro-4H-pyrrolo[3,2,1-ij]quinolin-1-yl)-N-{3-[(R)-2-oxo-3-(3-oxo-3,4-dihydro-2H-benzo[1,4]thiazin-6-yl)-oxazolidin-5-yl]-propyl}-acetamide and (RS)-1-{3-[(R)-3-(4-acetyl-3-oxo-3,4-dihydro-2H-benzo[1,4]thiazin-6-yl)-2-oxo-oxazolidin-5-yl]-propylamino}-9-fluoro-1,2-dihydro-pyrrolo[3,2,1-ij]quinolin-4-one [Example 172]	0.25
